According to patent US8030339B2, “Imidazole derivatives for the treatment of anxiety and related diseases” (Neurosearch A/S, priority 2005, dated 2011):

How the values were obtained:
[1] = target: benzodiazepine binding site on GABAA receptors; test: In vitro inhibition of 3H-flunitrazepam (3H-FNM) binding; parameters: species or system rat; conditions: cerebral cortex membranes from male Wistar rats; 3H-FNM 1 nM; 40 min at 2° C.
Description: In Vitro Inhibition of […] (3H-FNM) Binding
The GABA recognition site and the benzodiazepine modulatory unit can selectively be labelled with ^3H-flunitrazepam.
Preparations are performed at 0-4° C. unless otherwise indicated. Cerebral cortex from male Wistar rats (150-200 g) is homogenised for 5-10 sec in 20 ml Tris-HCl (30 mM, pH 7.4) using an Ultra-Turrax homogeniser. The suspension is centrifuged at 27,000×g for 15 min and the pellet is washed three times with buffer (centrifuged at 27,000×g for 10 min). The washed pellet is homogenized in 20 ml of buffer and incubated on a water bath (37° C.) for 30 min to remove endogenous GABA and then centrifuged for 10 min at 27,000×g. The pellet is then homogenized in buffer and centrifuged for 10 min at 27,000×g. The final pellet is resuspended in 30 ml buffer and the preparation is frozen and stored at −20° C.
The membrane preparation is thawed and centrifuged at 2° C. for 10 min at 27,000×g. The pellet is washed twice with 20 ml 50 mM Tris-citrate, pH 7.1 using an Ultra-Turrax homogeniser and centrifuged for 10 min at 27,000×g. The final pellet is resuspended in 50 mM Tris-citrate, pH 7.1 (500 ml buffer per g of original tissue), and then used for binding assays. Aliquots of 0.5 ml tissue are added to 25 μl of test solution and 25 μl of ^3H-FNM (1 nM, final concentration), mixed and incubated for 40 min at 2° C. Non-specific binding is determined using Clonazepam (1 μM, final concentration). After incubation the samples are added 5 ml of ice-cold buffer and poured directly onto Whatman GF/C glass fibre filters under suction and immediately washed with 5 ml ice-cold buffer. The amount of radioactivity on the filters is determined by conventional liquid scintillation counting. Specific binding is total binding minus non-specific binding.
25-75% inhibition of specific binding must be obtained, before calculation of an IC50.
The test value will be given as IC50 (the concentration (μM) of the test substance which inhibits the specific binding of ^3H-FNM by 50%).
Co is specific binding in control assays, and […]

SMILES | IC50 [1] [nM] | melting point [°C]
O=C(c1ccccc1)c1cn(-c2cccc(-c3ccccc3)c2)cn1 [Compound 8, (1-Biphenyl-3-yl-1H-imidazol-4-yl)-phenyl-methanone] | 36 | 
COc1ccc(F)cc1-c1cccc(-n2cnc(C(=O)c3ccccn3)c2)c1 [Compound 14, [1-(5′-Fluoro-2′-methoxy-biphenyl-3-yl)-1H-imidazol-4-yl]-pyridin-2-yl-methanone] | 2.7 | 
O=C(c1cn(-c2cccc(-c3ccccc3)c2)cn1)n1cccn1 [Compound 178, (1-Biphenyl-3-yl-1H-imidazol-4-yl)-pyrazol-1-yl-methanone] | 5.9 | 124 to 127
